Experimental data: patent US10030006B2, “Coumarin based Hsp90 inhibitors with urea and ether substituents” (University of Kansas, priority 2013, dated 2018)
Like-named read-outs stand apart in the source and are kept apart here.

Assays:
Assay type in all cases: cell-based
PC-3 = assay: Anti-proliferation assay, PC-3; conditions: Homo sapiens, PC-3, Prostate Cancer
Outline: (§1)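 Seeding density 2000 cells/well; 72 h treatment at varying concentrations, DMSO held at 1%. Viability determined by MTS/PMS kit, with vehicle-treated cells defining full proliferation, and IC50 calculated across separate triplicate experiments.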

MDA1986 = assay: Anti-proliferation assay, MDA1986; conditions: MDA1986, HSNCC
Outline: as §1

A-549 = assay: Anti-proliferation assay, A-549; conditions: Homo sapiens, A549
Outline: as §1

MDAMB231 = assay: Anti-proliferation assay, MDAMB231; conditions: Homo sapiens, MDA-MB-231, Tri-Neg
Outline: as §1

[1] = system: SKBr3 (estrogen receptor negative, Her2 over-expressing breast cancer cells); assay: Anti-proliferation assay (MTS/PMS, 72 h), SKBr3; conditions: Homo sapiens, SK-BR-3, Breast Cancer, read-out: IC50 SKBr3
[2] = system: MCF-7 (estrogen receptor positive breast cancer cells); assay: Anti-proliferation assay (MTS/PMS, 72 h), MCF-7; conditions: Homo sapiens, MCF7, Breast Cancer, read-out: IC50 MCF-3
BCPAP = assay: Anti-proliferation assay, BCPAP; conditions: Homo sapiens, BCPAP, Thyroid
Method: Cells were maintained in a 1:1 mixture of Advanced DMEM/F12 (Gibco) supplemented with non-essential amino acids, L-glutamine (2 mM), streptomycin (500 μg/mL), penicillin (100 units/mL), and 10% FBS. Cells were grown to confluence in a humidified atmosphere (37° C., 5% CO2), seeded (2000/well, 100 μL) in 96-well plates, and allowed to attach overnight. Compound at varying concentrations in DMSO (1% DMSO final concentration) was added, and cells were returned to the incubator for 72 h. At 72 h, the number of viable cells was determined using an MTS/PMS cell proliferation kit (Promega) per the manufacturer's instructions. Cells incubated in 1% DMSO were used at 100% proliferation, and values were adjusted accordingly. IC50 values were calculated from separate experiments performed in triplicate using GraphPad Prism.

HCT-116 = assay: Anti-proliferation assay, HCT-116; conditions: Homo sapiens, HCT-116
Outline: as §1

DRO81-1 = assay: Anti-proliferation assay, DRO81-1; conditions: Thyroid
Outline: as §1

HMLE = assay: Anti-proliferation assay, HMLE (normal); conditions: HMLE
Outline: as §1

MRC5 = assay: Anti-proliferation assay, MRC5 (normal); conditions: Homo sapiens
Outline: as §1

JMAR = assay: Anti-proliferation assay, JMAR; conditions: JMAR, HSNCC
Outline: as §1

[3] = Table 7, prenylated phenyl ureas
[4] = MRC5, Table 7, prenylated phenyl ureas
[5] = Table 6, substituted phenyl ureas
[6] = MRC5, Table 6, substituted phenyl ureas

SMILES | IC50 (PC-3; [5]) [nM] | IC50 (MDA1986; [5]) [nM] | IC50 (A-549; [5]) [nM] | IC50 (MDAMB231; [5]) [nM] | IC50 [1, 5] [nM] | IC50 [2, 5] [nM] | IC50 (BCPAP; [5]) [nM] | IC50 (HCT-116; [5]) [nM] | IC50 (DRO81-1; [5]) [nM] | IC50 (HMLE; [5]) [nM] | IC50 (MRC5; [6]) [nM] | IC50 (JMAR; [5]) [nM] | further results
CC(=O)Oc1ccc(NC(=O)Nc2cc3ccc(OC4CCN(C)CC4)c(C)c3oc2=O)cc1CC=C(C)C [OAc, 4-(3-(8-methyl-7-((1-methylpiperidin-4-yl)oxy)-2-oxo-2H-chromen-3-yl)ureido)-2-(3-methylbut-2-en-1-yl)phenyl acetate] | – | – | – | – | – | – | – | – | – | – | – | – | IC50 (PC-3; [3]): 380 nM; IC50 (MDA1986; [3]): 1320 nM; IC50 (A-549; [3]): 380 nM; IC50 (MDAMB231; [3]): 750 nM; IC50 [1, 3]: 540 nM; IC50 [2, 3]: 490 nM; IC50 (BCPAP; [3]): 129 nM; IC50 (HCT-116; [3]): 340 nM; IC50 (DRO81-1; [3]): 530 nM; IC50 (HMLE; [3]): 7200 nM; IC50 (MRC5; [4]): 1800 nM; IC50 (JMAR; [3]): 870 nM
COc1ccc(NC(=O)Nc2cc3ccc(OC4CCN(C)CC4)c(C)c3oc2=O)cc1CC=C(C)C [OMe, 1-(4-methoxy-3-(3-methylbut-2-en-1-yl)phenyl)-3-(8-methyl-7-((1-methylpiperidin-4-yl)oxy)-2-oxo-2H-chromen-3-yl)urea] | – | – | – | – | – | – | – | – | – | – | – | – | IC50 (PC-3; [3]): 230 nM; IC50 (MDA1986; [3]): 850 nM; IC50 (A-549; [3]): 230 nM; IC50 (MDAMB231; [3]): 830 nM; IC50 [1, 3]: 510 nM; IC50 [2, 3]: 370 nM; IC50 (BCPAP; [3]): 1340 nM; IC50 (HCT-116; [3]): 300 nM; IC50 (DRO81-1; [3]): 210 nM; IC50 (HMLE; [3]): 6500 nM; IC50 (MRC5; [4]): 2640 nM; IC50 (JMAR; [3]): 800 nM
COc1ccc(NC(=O)Nc2cc3ccc(OC4CCN(C)CC4)c(C)c3oc2=O)cc1-c1cccc(OC(C)=O)c1 [OMe, OAc, 2′-methoxy-5′-(3-(8-methyl-7-((1-methylpiperidin-4-yl)oxy)-2-oxo-2H-chromen-3-yl)ureido)-[1,1′-biphenyl]-3-yl acetate] | – | – | – | – | – | – | – | – | – | – | – | – | IC50 (PC-3; Table 8, biphenyl ureas): 1040 nM; IC50 (MDA1986; Table 8, biphenyl ureas): 850 nM; IC50 (A-549; Table 8, biphenyl ureas): 540 nM; IC50 (MDAMB231; Table 8, biphenyl ureas): 390 nM; IC50 ([1]; Table 8, biphenyl ureas): 260 nM; IC50 ([2]; Table 8, biphenyl ureas): 270 nM; IC50 (BCPAP; Table 8, biphenyl ureas): 16 nM; IC50 (HCT-116; Table 8, biphenyl ureas): 3390 nM; IC50 (DRO81-1; Table 8, biphenyl ureas): 260 nM; IC50 (HMLE; Table 8, biphenyl ureas): 1000 nM; IC50 (MRC5; MRC5, Table 8, biphenyl ureas): 3100 nM; IC50 (JMAR; Table 8, biphenyl ureas): 2200 nM
COc1ccc(NC(=O)Nc2cc3ccc(OC4CCN(C)CC4)c(C)c3oc2=O)cc1-c1cccc(O)c1 [OMe, OH, 1-(3′-hydroxy-6-methoxy-[1,1′-biphenyl]-3-yl)-3-(8-methyl-7-((1-methylpiperidin-4-yl)oxy)-2-oxo-2H-chromen-3-yl)urea] | – | – | – | – | – | – | – | – | – | – | – | – | IC50 (PC-3; Table 8, biphenyl ureas): 600 nM; IC50 (MDA1986; Table 8, biphenyl ureas): 2800 nM; IC50 (A-549; Table 8, biphenyl ureas): 410 nM; IC50 (MDAMB231; Table 8, biphenyl ureas): 95 nM; IC50 ([1]; Table 8, biphenyl ureas): 390 nM; IC50 ([2]; Table 8, biphenyl ureas): 290 nM; IC50 (BCPAP; Table 8, biphenyl ureas): 1940 nM; IC50 (HCT-116; Table 8, biphenyl ureas): 420 nM; IC50 (DRO81-1; Table 8, biphenyl ureas): 1200 nM; IC50 (HMLE; Table 8, biphenyl ureas): 3700 nM; IC50 (MRC5; MRC5, Table 8, biphenyl ureas): 9800 nM; IC50 (JMAR; Table 8, biphenyl ureas): 960 nM
COc1cccc(-c2cc(NC(=O)Nc3cc4ccc(OC5CCN(C)CC5)c(C)c4oc3=O)ccc2OC)c1 [OMe, OMe, 1-(3′,6-dimethoxy-[1,1′-biphenyl]-3-yl)-3-(8-methyl-7-((1-methylpiperidin-4-yl)oxy)-2-oxo-2H-chromen-3-yl)urea] | – | – | – | – | – | – | – | – | – | – | – | – | IC50 (PC-3; Table 8, biphenyl ureas): 470 nM; IC50 (MDA1986; Table 8, biphenyl ureas): 1390 nM; IC50 (A-549; Table 8, biphenyl ureas): 470 nM; IC50 (MDAMB231; Table 8, biphenyl ureas): 610 nM; IC50 ([1]; Table 8, biphenyl ureas): 170 nM; IC50 ([2]; Table 8, biphenyl ureas): 200 nM; IC50 (BCPAP; Table 8, biphenyl ureas): 390 nM; IC50 (HCT-116; Table 8, biphenyl ureas): 460 nM; IC50 (DRO81-1; Table 8, biphenyl ureas): 480 nM; IC50 (HMLE; Table 8, biphenyl ureas): 1600 nM; IC50 (MRC5; MRC5, Table 8, biphenyl ureas): 4300 nM; IC50 (JMAR; Table 8, biphenyl ureas): 500 nM
CCc1cccc(NC(=O)Nc2cc3ccc(OC4CCN(C)CC4)c(C)c3oc2=O)c1 [m-CH2CH3, 1-(3-ethylphenyl)-3-(8-methyl-7-((1-methylpiperidin-4-yl)oxy)-2-oxo-2H-chromen-3-yl)urea] | 410 | 1320 | 400 | 1900 | 440 | 500 | 5590 | 340 | 670 | > 25000 | 5300 | 630 | –
Cc1cccc(NC(=O)Nc2cc3ccc(OC4CCN(C)CC4)c(C)c3oc2=O)c1 [m-CH3, 1-(8-methyl-7-((1-methylpiperidin-4-yl)oxy)-2-oxo-2H-chromen-3-yl)-3-(m-tolyl)urea] | 840 | 2020 | 1210 | 3500 | 840 | 550 | 3540 | 1110 | 540 | 3100 | 4300 | 1800 | –
CC(=O)c1cccc(NC(=O)Nc2cc3ccc(OC4CCN(C)CC4)c(C)c3oc2=O)c1 [m-COCH3, 1-(3-acetylphenyl)-3-(8-methyl-7-((1-methylpiperidin-4-yl)oxy)-2-oxo-2H-chromen-3-yl)urea] | 1230 | 21000 | 540 | 610 | 830 | 1170 | 270 | 720 | 13600 | 1900 | > 25000 | 15700 | –
CC(=O)Oc1cccc(NC(=O)Nc2cc3ccc(OC4CCN(C)CC4)c(C)c3oc2=O)c1 [m-OAc, 3-(3-(8-methyl-7-((1-methylpiperidin-4-yl)oxy)-2-oxo-2H-chromen-3-yl)ureido)phenyl acetate] | 1910 | 6820 | 1910 | 4100 | 2370 | 1410 | 2820 | 12100 | 2700 | 13600 | > 25000 | 3850 | –
Cc1c(OC2CCN(C)CC2)ccc2cc(NC(=O)Nc3cccc(O)c3)c(=O)oc12 [m-OH, 1-(3-hydroxyphenyl)-3-(8-methyl-7-((1-methylpiperidin-4-yl)oxy)-2-oxo-2H-chromen-3-yl)urea] | 10900 | 21900 | 10900 | 1300 | 2370 | 2730 | 270 | > 100000 | > 25000 | 11900 | > 25000 | 6500 | –
CCc1ccc(NC(=O)Nc2cc3ccc(OC4CCN(C)CC4)c(C)c3oc2=O)cc1 [p-CH2CH3, 1-(4-ethylphenyl)-3-(8-methyl-7-((1-methylpiperidin-4-yl)oxy)-2-oxo-2H-chromen-3-yl)urea] | 410 | 1400 | 490 | 690 | 580 | 560 | 4360 | 530 | 290 | 1200 | 2600 | 1030 | –
Cc1c(OC2CCN(C)CC2)ccc2cc(NC(=O)Nc3ccc(N(C)C)cc3)c(=O)oc12 [p-N-dimethylamine, 1-(4-(dimethylamino)phenyl)-3-(8-methyl-7-((1-methylpiperidin-4-yl)oxy)-2-oxo-2H-chromen-3-yl)urea] | 7960 | 17500 | 2700 | 1400 | 1110 | 1000 | 740 | 9340 | > 25000 | 960 | 14400 | 770 | –
CC(=O)Oc1ccc(NC(=O)Nc2cc3ccc(OC4CCN(C)CC4)c(C)c3oc2=O)cc1 [p-OAc, 4-(3-(8-methyl-7-((1-methylpiperidin-4-yl)oxy)-2-oxo-2H-chromen-3-yl)ureido)phenyl acetate] | 1150 | 1980 | 1510 | 850 | 1480 | 1720 | 5530 | 2610 | 3700 | 15900 | 15500 | 3500 | –
